{
  "source": "patent US20210145972A1",
  "about": "“NAN[…] A NUCLEIC ACID SCAFFOLD AND VIRUS-BINDING PEPTIDE MOIETIES” (FRAUNHOFER-GESELLSCHAFT ZUR FÖRDERUNG DER ANGEWANDTEN …, priority 2017, published 2021)",
  "molecules": {"B1": {"name": "DNA-PeB3: three-branched DNA scaffold of three DNA strands (SEQ ID NOs 2-4) with three PeB peptide moieties, one per strand end (conjugate)", "DNA 1": "ACTATCTTTGGTCTATTATCTTGAGTCATC", "DNA 2": "TAGTTGTGTGTGTGTTAGACCAAAGATAGT", "DNA 3": "GATGACTCAAGATAAACACACACACAACTA", "modifications": "DNA, backbone and methylation of C not given here; PeB peptide conjugated at one end of each strand"}},
  "key": {"Dengue virus": {"system": "Dengue virus", "settings": "read-out: virus entry into host cells inhibited by 50% (IC50); cited from earlier work"}, "Dengue virus 2": {"system": "Dengue virus 2", "assay": "Focus formation assay", "assay_type": "cell-based", "method": "The inhibition of Dengue virus 2 by DET4 peptides and DET4 coupled to DNA nanostructures was investigated by focus formation assay. Target cells were seeded in a 96-well plate the day before infection. In a separate 96 well plate 200-500 virus particles per well were incubated with or without DET4 monomers and DET4-coupled DNA Trimers in different concentrations for 2 hours followed by transfer of the mixtures to confluent target cell monolayers and incubation for 1 h at 37° C.\nSubsequently fresh DMEM/2% (v/v) FBS containing 1.6% (w/v) Avicell was added to each well, covering the surface with microcrystalline cellulose to avoid spreading of the virus in the medium and enhancing formation of virus foci. Infected cells were incubated for 4 days followed by washing with PBS and fixing with 70% ethanol. Cells were rinsed with phosphate buffered saline, pH 7.4 (PBS) prior to immunostaining. Virus foci were detected using an Anti-flavivirus mouse monoclonal antibody that recognizes Dengue viruses, followed by horseradish peroxidase-conjugated goat anti-mouse immunoglobulin, and developed using TMB chromogen substrate. After washing, Virus foci were visible in the wells as blue spots that were counted for quantitative analysis. Counting results are presented in the table 1."}, "[1]": {"system": "inactivated influenza A virus", "assay_type": "binding", "settings": "flow cell 4 vs flow cell 2"}, "[2]": {"system": "influenza A infection of MDCKII cells", "assay": "Infection inhibition assay using MDCKII cells (cytopathic effect)", "assay_type": "cell-based", "method": "Also preferred is an infection inhibition assay. The infection inhibition assay using MDCKII cells and the MTT Test (or MTS). Inhibitor (peptide-conjugates DNA nanostructure) and virus are pre-incubated for 10-30 min at room temperature and added to cells (MDCKII for influenza, Vero E6 for Dengue). Viral infection of host cells can be tested after 24-72 h by either crystal violet staining or MTT/MTS reagents. Infected cells will slow down their metabolism and/or die after a certain time.\nThe inhibition of the influence virus by different DNA scaffolds together with PeB is shown. It can be seen from SPR data in FIG. 8 that the binding of virus particles is increased when more peptides are presented on the DNA scaffold. […] No binding to the virus particles is seen when they are not carrying any peptides.\nFIG. 14A: Infection inhibition assay using MDCKII cells. This is a microscopic image of MDCKII cells. The cells form a healthy monolayer. No cytopathic effect (CPE) is seen.\nFIG. 14b: Infection inhibition assay using MDCKII cells. This is a microscopic image of MDCKII cells infected with influenza viruses. The cells begin to die. A cytopathic effect (CPE) (rounding up and small aggregations of the cells) is clearly seen."}, "[3]": {"target": "influenza A hemagglutinin (Influenza A virus, UniProt P03437)", "settings": "read-out: dissociation constant KD with hemagglutinin; cited from earlier work"}, "influenza A viruses": {"system": "influenza A viruses", "assay": "Hemagglutination inhibition assay (HAI)", "assay_type": "cell-based", "settings": "dilution series, constant virus and blood, FIGS. 11-13"}},
  "note": "Entries after “also recorded” stand apart in the source; their conditions may differ. Ends that are not written are not given here.",
  "data": [
    {"molecule": "AGVKDGKLDF [DET4]", "values": [
      {"measurement": "IC50", "setting": "Dengue virus", "value": 35, "unit": "µM"},
      {"measurement": "inhibition of Dengue virus infection of target cells, result in words", "setting": "Dengue virus 2", "value": "not able to inhibit viral infection"},
      {"measurement": "virus foci counted", "setting": "Dengue virus 2; 10 μM", "value": 53},
      {"measurement": "virus foci counted", "setting": "Dengue virus 2; 50 μM", "value": 47},
      {"measurement": "virus foci counted", "setting": "Dengue virus 2; 100 μM", "value": 46}
    ]},
    {"molecule": "DNA 4-arm structure with 3×PeB: mimics the N structure with a fourth arm bearing biotin, carrying 3×PeB (ARDFYDYDVFYYAMD; also: stated molecule is a DNA 4-arm structure with biotin arm carrying 3×PeB)", "values": [
      {"measurement": "dissociation time compared to the simple DNA double-strand (SPR)", "setting": "[1]", "value": "slower dissociation time"}
    ]},
    {"molecule": "ARDFYDYDVFYYAMD [PeB, reference compound]", "values": [
      {"measurement": "inhibition of infection / cytopathic effect", "setting": "[2]; 500 μM", "value": "more significant cytopathic effect; also recorded: not enough to inhibit the infection"},
      {"measurement": "Kd", "setting": "[3]", "value": 56.8, "unit": "µM"}
    ]},
    {"molecule": "B1", "values": [
      {"measurement": "inhibition of infection / cytopathic effect", "setting": "[2]; 11 μM, listed as N with 3 peptides", "value": "clear inhibition"},
      {"measurement": "inhibition of infection / cytopathic effect", "setting": "[2]; 11 μM, listed as Trimer “N” with 3×PeB", "value": "Virus infection was inhibited"},
      {"measurement": "inhibition of virus binding to RBCs (HAI), result in words", "setting": "influenza A viruses", "value": "able to inhibit binding of the influenza A virus to red blood cells"},
      {"measurement": "inhibition of virus binding to RBCs (HAI), result in words", "setting": "influenza A viruses; listed as N", "value": "concentration-dependent increase in binding"},
      {"measurement": "inhibition of virus binding to RBCs (HAI), result in words", "setting": "influenza A viruses; listed as N_3×PeB", "value": "RBCs forming a dot on the bottom of the well can be seen for high concentrations; also recorded: hinder the viruses from binding to RBCs"}
    ]}
  ]
}
